Data published in US20250281561A1, “APPLICATION OF LYCIUM BARBARUM LEAF EXTRACT IN PREPARING DRUG FOR TREATING DIABETIC RETINOPATHY” (NANJING UNIVERSITY OF CHINESE MEDICINE, priority 2025, published 2025).

What was measured:
DR zebrafish [1] = assay: Kit detection of glucose content and oxidative stress level (GSH, SOD, MDA) in DR zebrafish; format: in vivo
Method: (§1) 3dpf zebrafish embryos were cultured in a 6-well plate, with 30 zebrafish embryos in each well. A model group and an administration group were cultured in 100 mg/mL circulating water, and divided into a Con group, a Mod group, a metformin (MET) group, a ST-H group, a ST-L group, a CT-H group, a CT-L group, a FT-H group, a FT-L group, a DT-H group, a DT-L group, a SWJ-H group, and a SWJ-L group. An administration dosage for the MET group was 200 μg/ml, and a crude drug dosage was converted for other administration groups, wherein a high dose was 40 μg/mL, and a low dose was 20 μg/mL. The zebrafish embryos were cultured for three days, and the water was replaced at a fixed time every day.
Wild A/B-type zebrafish embryos were cultured according to the above method, and then the zebrafish embryos were collected into Ep tubes and then homogenized, and centrifuged at 4000 rpm for 10 minutes. A supernatant was taken, and GLU and GSH levels and SOD and MDA activities in cells were detected according to a kit instruction.

DR zebrafish [2] = assay: Retinal vascular diameter in DR zebrafish (fli1: EGFP, fluorescence microscope, ImageJ); format: in vivo; conditions: crude drug dosage high 40 μg/mL, low 20 μg/mL, three days, compared with model group
Method: as §1
3dpf fli1: EGFP zebrafish embryos were cultured by the method as described in 2.4, and 0.003% phenylthiourea (PTU) was added into circulating water to inhibit melanogenesis of the zebrafish embryos. After the culture was completed, the zebrafish embryos were collected, and fixed on a glass slide. The retinal vessels in the zebrafish were photographed by a fluorescence microscope, and a retinal vascular diameter was measured by ImageJ.

[3] = test system: p38, ERK and JNK genes in a MAPK pathway; assay: qPCR gene expression level (p38, ERK, JNK) in ARPE-19 cells with high glucose-induced damage; format: cell-based; conditions: 10 μg/mL, compared with model group
Method: (§2) The ARPE-19 cells were cultured in DMEM/F12 culture medium containing 10% FBS and 1% penicillin/streptomycin at 37° C. under 5% CO2. A model group was treated with 300 mM glucose, and the culture medium was added with a corresponding drug to culture the cells for 48 hours to complete the modeling.
The cells were inoculated into a 6-well plate during cell culture, and divided into a Con group, a Mod group, a ST group, a CT group, a FT group, a DT group, and a SWJ group, wherein the administration dosage was 10 μg/mL. The cells were collected into Ep tubes and centrifuged at 1000 rpm for 5 minutes, and a supernatant was discarded. Each tube was added with 1 ml of Trizol reagent and blown violently for 15 seconds to mix fully and evenly, and the mixture was allowed to stand at room temperature for 2-3 minutes, and rotated at 4° C. for 1-2 hours. […] A concentration was determined by an ultra-micro ultraviolet spectrophotometer, and then the mixture was stored in a refrigerator at −80° C. for later use. […]
The reaction system was mixed fully and evenly, added to a 96-well PCR plate, centrifuged, and determined by a PCR machine. […] A CT value of a sample was determined, and then relative expressions of p38, JNK and ERK in the sample were calculated by a 2-ΔΔCT method.

[4] = test system: ARPE-19 cells with high glucose-induced damage; assay: Kit detection of oxidative stress level (GSH, SOD, MDA) in ARPE-19 cells with high glucose-induced damage; format: cell-based; conditions: summary statement
Method: (§3) Preparation method of active ingredient solution of Lycium barbarum leaf: 1 mg of freeze-dried powder of different active ingredients of Lycium barbarum leaf (Lycium barbarum leaf water extract, Lycium barbarum leaf ethanol extract, refined Lycium barbarum leaf extract, Lycium barbarum polysaccharide, and betaine) prepared in Embodiment 1 was weighed respectively, and dissolved in 1 mL of DMEM/F12 culture medium to prepare 1 mg/mL solution, and the solution was diluted to a required concentration with DMEM/F12 culture medium during administration, and filtered with a […] filter for sterilization.
as §2
The cells were inoculated into a 6-well plate during cell culture, and divided into a Con group, a Mod group, a ST-H group, a ST-L group, a CT-H group, a CT-L group, a FT-H group, a FT-L group, a DT-H group, a DT-L group, a SWJ-H group, and a SWJ-L group, wherein the high dose was 10 μg/mL and the low dose was 1 μg/mL. […] A GSH level, and SOD and MDA activities in the cells were detected according to a kit instruction.

[5] = test system: ARPE-19 cells with high glucose-induced damage; assay: CCK8 survival rate of ARPE-19 cells with high glucose-induced damage; format: cell-based; conditions: 300 mM glucose, 48 hours; high dose 10 μg/mL, low dose 1 μg/mL; compared with model group
Method: as §3, with “sterilization. […]” for “sterilization.”
The cells were inoculated into a 96-well plate during culture, and divided into a control group (Con group), a model group (Mod group), a high-dose Lycium barbarum leaf water extract group (ST-H group), a low-dose Lycium barbarum leaf water extract group (ST-L group), a high-dose Lycium barbarum leaf ethanol extract group (CT-H group), a low-dose Lycium barbarum leaf ethanol extract group (CT-L group), […], a low-dose Lycium barbarum polysaccharide group (DT-L group), a high-dose betaine group (SWJ-H group), and a low-dose betaine group (SWJ-L group), wherein the high dose was 10 μg/mL and the low dose was 1 μg/mL. […] An absorbance was measured at 450 nm, and a cell survival rate was calculated.

[6] = test system: p38, ERK and JNK genes in a MAPK pathway; assay: qPCR gene expression level (p38, ERK, JNK) in DR zebrafish; format: in vivo; conditions: crude drug dosage high 40 μg/mL, low 20 μg/mL, three days, compared with model group
Method: as §1
The cultured zebrafish embryos were collected into Ep tubes, and each tube was added with 1 mL of TRIZOL and then homogenized, and centrifuged at 4° C. and 12000× g for 10 minutes. A supernatant was taken, and other operations were as described in 2.3.

[7] = test system: ARPE-19 cells with high glucose-induced damage; assay: ROS content (H2FCDA fluorescence) in ARPE-19 cells with high glucose-induced damage; format: cell-based; conditions: high dose 10 g/mL, low dose 1 μg/mL, compared with model group
Method: as §2
The cells were inoculated into a 96-well plate during culture, and divided into a Con group, a Mod group, a ST-H group, a ST-L group, a CT-H group, a CT-L group, a FT-H group, a FT-L group, a DT-H group, a DT-L group, a SWJ-H group, and a SWJ-L group, wherein the high dose was […] and the low dose was 1 μg/mL. After the culture was completed, the culture medium was discarded, and a culture medium containing 1/1000 H2FCDA was added to incubate the cells at 37° C. for 30 minutes. A photo was taken by a fluorescence microscope at an excitation wavelength of 488 nm, and a fluorescence intensity was analyzed by ImageJ.

C[N+](C)(C)CC(=O)O [betaine]
oxidative stress (DR zebrafish [1]; DR zebrafish model, summary statement): improve oxidative stress | glucose content (DR zebrafish [1]; DR zebrafish, crude drug dosage high 40 μg/mL, low 20 μg/mL, three days, compared with model group): reduce a glucose content in vivo | retinal vascular diameter (DR zebrafish [2]): significantly reduce a retinal vascular diameter | relative mRNA expressions of p38, ERK and JNK [3]: down-regulate expression levels | oxidative stress [4]: improve oxidative stress | survival rate of ARPE-19 cells [5]: improve a survival rate | relative mRNA expressions of p38, ERK and JNK [6]: down-regulate expression levels | ROS content (ROS fluorescence intensity) [7]: significantly reduce the generation of ROS
